Measurements as given in patent US11260042B2, “Pharmaceutical combination for the treatment of cancer” (ABILITY PHARMACEUTICALS S.L., priority 2017, dated 2022).
“Also recorded” adds a separate entry of the source. Read-outs that look alike come from different tables or passages of the source.

Columns and labels:
[1] = tested on: A549 (human lung carcinoma) cell line with mutated KRAS; assay: Cell viability (MTT) of ABTL0812 in combination with paclitaxel, A549; type: cell-based; conditions: A549, 72 hours, 0.1% FBS, single agent
Protocol: (§1) Methods: A549 cells were incubated with increasing concentrations of ABTL0812 (3-300 μM), paclitaxel (0.003-1 μM), or a combination of both using subIC50 fixed concentration of ABTL0812 and 0.003-1 μM paclitaxel for 72 hours in DMEM with 0.1% FBS. H157, H1957 and HTB-812 cells were incubated with increasing concentrations of paclitaxel (0.001-10 μM) alone and in combination with subIC50 fixed concentration of ABTL0812 for 48 hours in DMEM with 0.1% FBS. Cell viability was evaluated in all cases by MTT assay and IC50's were calculated for paclitaxel and the combination. The concentrations of the combinations for the different cell lines were:
(§2) Finally, the Combination Index (CI), as described in the previous section, was calculated for the values of paclitaxel IC50.

H157 cells = assay: Cell viability (MTT) of ABTL0812 in combination with paclitaxel, H157; type: cell-based, human; conditions: H157, 48 hours, 0.1% FBS, single agent
Protocol: as §1, §2

H1957 cells = assay: Cell viability (MTT) of ABTL0812 in combination with paclitaxel, H1957; type: cell-based, human; conditions: H1957, 48 hours, 0.1% FBS, single agent
Protocol: as §1, §2

HTB-812 cells = assay: Cell viability (MTT) of ABTL0812 in combination with paclitaxel, HTB-812; type: cell-based, human; conditions: HTB-812, 48 hours, 0.1% FBS, single agent
Protocol: as §1, §2

[2] = tested on: MDB-DA-231 (human triple negative breast cancer); assay: Cell viability (MTT) of ABTL0812 alone or with paclitaxel in breast cancer; type: cell-based
Protocol: Methods: MDB-DA-231 cells were seeded in 24-well plates together with increasing concentration of paclitaxel (1-100 nM) in the presence of 5, 10 and 20 μM of ABTL0812 (all doses below to an IC25) for 48h (0.5% FBS). Cell viability was studied by the MTT assay and several parameters were determined to evaluate a possible synergism. First the IC50 for each drug alone or the combination was calculated.

[3] = tested on: H157 human squamous lung cancer xenograft; type: in vivo; conditions: day 20 after beginning of treatments; ABTL0812 120 mg/kg oral; end-point tumor volume >1000 mm^3 or welfare
Protocol: Objective: Investigate survival rate for ABTL0812 alone and in combination with paclitaxel and carboplatin (P/C) with a Kaplan-Meier analysis in a human squamous NSCLC xenograft model Methods: Mice were injected with 5×10^6 H157 cells in one flank to induce tumor formation. […] The different conditions studied were vehicle, 120 mg/kg oral ABTL0812 daily, 15 mg/kg carboplatin+50 mg/kg paclitaxel by i.p. route and an additional group receiving the combination of these two regimens. […] Tumor volume was monitored 3 times a week.

[4] = tested on: MiaPaca2 human pancreatic cancer xenograft; type: in vivo; conditions: ABTL0812 120 mg/kg oral; P/Gm 15 mg/kg and 60 mg/kg two times per week; 4 weeks
Protocol: Methods: Athymic female nude mice (n=9 per group) were injected via subcutaneous route with 0.1 ml of MiaPaca2 cells (5×10^6 cell/ml in serum free DMEM media in 1:1 with matrigel) in one flank. Tumor Volumes (TV) were measured as length×width^2×½ three times a week.

[5] = tested on: MiaPaca2 human pancreatic cancer xenograft; assay: Human pancreatic xenograft (MiaPaca-2), gemcitabine and Nab-paclitaxel/gemcitabine; type: in vivo, Athymic Nude-Foxn1nu female mice; conditions: ABTL0812 120 mg/kg oral 5 times a week; gemcitabine 60 mg/kg, Nab-Paclitaxel 5 mg/kg i.p. 2 times a week (suboptimal chemotherapy dose)
Protocol: It is important to change the site of injection to avoid intestinal necrosis and keep Nab-Paclitaxel and gemcitabine injections as far as possible one from the other in mice abdomen. • Gemcitabine+ABTL0812 (n=10): treated orally with 120 mg/kg of ABTL0812 in 200 μl of distilled water+5% glycerol, 5 times a week and with 60 mg/kg of gemcitabine administered i.p in 100 μl of sterile water, 2 times a week. ABTL0812 was always administered before chemotherapy with the aim of reducing the stress derived from the i.p. injection, that is normally applied as the last administration. • Gemcitabine+Nab-Paclitaxel+ABTL0812 (n=8): treated orally with 120 mg/kg of ABTL0812 in 200 μl of distilled water+5% glycerol, 5 times a week, with 60 mg/kg of gemcitabine administered i.p. in 100 μl of sterile water, 2 times a week and with 5 mg/kg of Nab-Paclitaxel administered i.p. in 230 μl of 0.9% NaCl solution 2 times a week. As in the gemcitabine+Nab-Paclitaxel group, injections where administered in separated areas of the abdomen. […]
Treatment efficacy was assessed by measuring tumor volume three days a week. Additionally, total body weight was monitored three days a week to test the toxicity associated with the treatments in addition to visual examination of signs indicative of clinicopathological symptoms. […]

[6] = tested on: EGI-1 human cholangiocarcinoma xenograft; assay: Human cholangiocarcinoma (EGI-1) xenograft, gemcitabine and cisplatin; type: in vivo, Nu/nu male mice; conditions: ABTL0812 120 mg/kg oral; gemcitabine 50 mg/kg and cisplatin 2 mg/kg i.p. once a week
Protocol: Methods: EGI-1 cell line was routinely cultured in DMEM 10% FBS and cells in an exponential growth phase were harvested and counted for tumor inoculation.
Treatment groups were: • Vehicle group (n=8): treated orally with 200 μl of water+5% glycerol four days a week and two injections i.p. of 100 μl of saline solution once a week • ABTL0812 (n=8): treated orally with 200 μl of 120 mg/kg of ABTL0812 resuspended in water+5% glycerol 5 times a week • Gemcitabine/cisplatin (n=8): treated with 100 μl of 50 mg/kg of gemcitabine administered i.p. and 100 μl of 2 mg/kg of cisplatin administered i.p. once a week • ABTL0812+gemcitabine/cisplatin (n=8): treated orally with 200 μl of 120 mg/kg of ABTL0812 four days a week and 100 μl of 50 mg/kg of gemcitabine administered i.p. and 100 μl of 2 mg/kg of cisplatin administered i.p. once a week

[7] = type: in vivo
Protocol: Methods: Forty-five female CD-1 mice were distributed by means of the body weight stratification method into nine experimental groups (A-I) (5 animals for group) that differed in the treatment or in the day on which the reference items (paclitaxel and carboplatin) were administered.
The table below summarizes the treatment groups. Please note that the same administration schedule and doses were administered as in the previous efficacy studies.
The safety assessment relied on observed mortality, local and systemic clinical signs, body weight and food consumption recorded throughout the whole study. In addition, clinical pathology determinations (biochemistry and hematology) were performed before sacrifice in all animals. At the end of the observation period (one day after the last administration), all surviving animals were sacrificed and subjected to a gross necropsy. Moreover, the safety assessment was also based on the weight of selected target organs collected at sacrifice.

[8] = tested on: human endometrial cancer patient derived xenograft; assay: Patient-derived xenograft (PDX) endometrial model, paclitaxel and carboplatin
Protocol: After tumors grew up to 100 mm^3, tumors were extracted from mice, minced in 2 mm long pieces and re-implanted in one flank of 40 mice. When average tumor volume reached 100 mm^3, mice were randomly distributed into treatment groups, and dosed as follows: vehicle (n=11); ABTL0812: 120 mg/kg orally, 5 times per week (n=10); paclitaxel/carboplatin (P/C): P:50 mg/kg/C:15 mg/kg intraperitoneal (n=12); and ABTL0812+P/C: ABTL0812 (n=10) was administered always two days prior to the first P/C administration and two days after, maintaining 4 doses of ABTL0812 and one of P/C per week; doses were the same as when given separately.
The effectiveness of the therapy was measured by the impact of the treatment on the tumor growth, which was measured by its volume. The health state of the animals and the drug-induced toxicity were determined by the animal body weight during the study. Tumor size evolution and tumor weight were evaluated by two-way ANOVA (day by day analysis).
In order to simulate the Phase II clinical trial design, where ABTL0812 will be administered chronically after P/C cycles, P/C treatment was removed from P/C and ABTL0812+P/C groups, maintaining ABTL0812 chronically. Tumor volume was measure after P/C treatment removal during an extra 17 days.

CCCCC/C=C\C/C=C\CCCCCCC(O)C(=O)O (stereo not drawn) [ABTL0812, COOH—CHOH—(CH2)6—(CH═CH—CH2)2—(CH2)3—CH3]
IC50 [1]: 49 µM | IC50 (H157 cells): 23 µM | IC50 (H1957 cells): 43 µM | IC50 (HTB-812 cells): 29 µM | cytotoxicity alone at the concentration chosen for the combination ([2]; MDB-DA-231): < 10% | IC50 ([2]; MDB-DA-231, 48h, 0.5% FBS, MTT, single agent): 29 µM | survival (Kaplan-Meier) [3]: 0% | tumor volume [4]: positive effect within the first 15 days after treatment, showing similar tumor volume to vehicle group in the following days | tumor volume [5]: better response in tumor volume evolution than Gem+Nab-Pac group during the first 20 days of treatment; also recorded: better response in tumor volume evolution than Gem group during the whole study | tumor volume [6]: did not show tumor volume reduction compared to vehicle until the last day of treatment | Biochemistry Creat ([7]; mouse, in vivo): 9.18 µmol/L | Biochemistry Triglyc ([7]; mouse, in vivo): 0.94 mmol/L | Biochemistry Urea ([7]; mouse, in vivo): 3.66 mmol/L | Body Weight Gain D 8-11 ([7]; mouse, in vivo): 0.138 g | Hematology PLT ([7]; mouse, in vivo): 1293 ×10^3/μL | Hematology RBC ([7]; mouse, in vivo): 9.57 ×10^6/μL | Hematology WBC ([7]; mouse, in vivo): 5.94 ×10^3/μL | mortality and tolerability ([7]; two-week administration): did not cause mortality and was well tolerated | tumor growth after P/C removal ([8]; after day 47, P/C stopped, ABTL0812 maintained chronically, extra 17 days): tumor growth inhibition very similar to P/C | tumor growth (volume) ([8]; first 47 days, ABTL0812 120 mg/kg orally, P 50 mg/kg / C 15 mg/kg i.p.): same efficacy as P/C | total body weight, toxicity ([8]; mouse, in vivo): without any signs of relevant toxicity; also recorded: Body weight reduction was observed partially only in ABTL0812 group at day 15
